# Activity calls are given as the source filed them. The rule behind the calls is not given here. Bridge positions count the residues as written; N and C are the ends. Square brackets hold non-standard residues; d marks the D form. Triazole bridges read from a SMILES are 1,4-linked. Peptide text beside a SMILES is read from it. Lys(N3) = [N-]=[N+]=NCCCC[C@H](N)C(=O)O; Orn(N3) = [N-]=[N+]=NCCC[C@H](N)C(=O)O; Hpra = C#CCC[C@H](N)C(=O)O; Pra = C#CC[C@H](N)C(=O)O; Ahx = NCCCCCC(=O)O
# Assays:
# [1] = target: Pannexin-1 (Mus musculus) (UniProt Q9JIP4); assay: Inhibition of PANX1 in mouse B16-BL6 cells assessed as reduction in HOS-induced ATP release at 100 uM preincubated for 10 mins followed by HOS solution addition and measured after 30 mins by bioluminescence analysis; type: cell-based; settings: time 40.0 min
# [2] = tested on: B16-BL6; assay: Cytotoxicity against mouse B16-BL6 cells at 1.56 to 100 uM incubated for 30 mins with compound in HOS solution by LDH assay; type: toxicity, cell-based; settings: b16-bl6, 0.5 h, dose 1.56-100 µM
# [3] = target: Pannexin-1 (Rattus norvegicus) (UniProt P60570); assay: Inhibition of PANX1 in rat H9C2 cells assessed as reduction in HOS-induced ATP release at 2.5 mM preincubated for 10 mins followed by HOS solution addition and measured after 30 mins by bioluminescence analysis; type: cell-based; settings: time 40.0 min
# [4] = target: Pannexin-1 (Homo sapiens) (UniProt Q96RD7); assay: Inhibition of PANX1 in human EA.hy 926 cells assessed as reduction in HOS-induced ATP release at 2.5 mM preincubated for 10 mins followed by HOS solution addition and measured after 30 mins by bioluminescence analysis; type: cell-based; settings: time 40.0 min
# [5] = tested on: B16-BL6; assay: Cytotoxicity against mouse B16-BL6 cells at 2.5 mM incubated for 30 mins with compound in HOS solution by LDH assay; type: toxicity, cell-based; settings: b16-bl6, 0.5 h, 2500 µM
# [6] = target: Pannexin-1 (Mus musculus) (UniProt Q9JIP4); assay: Inhibition of PANX1 in mouse B16-BL6 cells assessed as reduction in HOS-induced Yo-Pro-1 uptake by measuring reduction in green fluorescence at 2.5 mM preincubated for 10 mins followed by HOS solution addition and measured after 30 secs to 30 mins by fluorescence based analysis; type: cell-based; settings: time 10.5-40 min
# [7] = target: Pannexin-1 (Rattus norvegicus) (UniProt P60570); assay: Inhibition of PANX1 in rat H9C2 cells assessed as reduction in HOS-induced ATP release at 12.5 to 100 uM preincubated for 10 mins followed by HOS solution addition and measured after 30 mins by bioluminescence analysis; type: cell-based; settings: dose 12.5-100 µM, time 40.0 min
# [8] = tested on: B16-BL6; assay: Cytotoxicity against mouse B16-BL6 cells at 6.25 to 100 uM incubated for 30 mins with compound in HOS solution by LDH assay; type: toxicity, cell-based; settings: b16-bl6, 0.5 h, dose 6.25-100 µM
# [9] = target: Pannexin-1 (Mus musculus) (UniProt Q9JIP4); assay: Inhibition of PANX1 in mouse B16-BL6 cells assessed as reduction in HOS-induced Yo-Pro-1 uptake by measuring reduction in green fluorescence at 12.5 uM preincubated for 10 mins followed by HOS solution addition and measured after 30 mins by fluorescence based analysis; type: cell-based; settings: time 40.0 min
# [10] = tested on: EA.hy 926; assay: Antiinflammatory activity in TNF-alpha stimulated human EA.hy926 cells cocultured with human THP-1 cells assessed as inhibition of monocyte adhesion at 100 uM incubated for 15 mins followed by adhesion for 2 hrs; type: functional, cell-based; settings: time 135.0 min
# [11] = target: Pannexin-1 (Homo sapiens) (UniProt Q96RD7); assay: Inhibition of PANX1 in human EA.hy 926 cells assessed as reduction in HOS-induced ATP release at 12.5 to 100 uM preincubated for 10 mins followed by HOS solution addition and measured after 30 mins by bioluminescence analysis; type: cell-based; settings: dose 12.5-100 µM, time 40.0 min
# [12] = tested on: EA.hy 926; assay: Cytotoxicity against human EA.hy 926 cells at 12.5 to 100 uM incubated for 30 mins with compound in HOS solution by LDH assay; type: toxicity, cell-based; settings: ea.hy 926, 0.5 h, dose 12.5-100 µM
# [13] = target: Pannexin-1 (Mus musculus) (UniProt Q9JIP4); assay: Inhibition of PANX1 in mouse B16-BL6 cells assessed as reduction in HOS-induced ATP release preincubated for 10 mins followed by HOS solution addition and measured after 30 mins by bioluminescence analysis; type: cell-based; settings: dose 6.25-400 µM, time 40.0 min
# [14] = target: Pannexin-1 (Mus musculus) (UniProt Q9JIP4); assay: Inhibition of PANX1 in mouse B16-BL6 cells assessed as reduction in HOS-induced ATP release at around 10 nM preincubated for 10 mins followed by HOS solution addition and measured after 30 mins by bioluminescence analysis; type: cell-based; settings: time 40.0 min
# [15] = Stability in PBS at pH 7.4 assessed as conserved alpha-helical profile at 200 uM at 20 to 90 degreeC by CD spectra analysis; type: physicochemical; settings: buffer, pH 7.4, 200 µM
# [16] = target: Pannexin-1 (Homo sapiens) (UniProt Q96RD7); assay: Inhibition of PANX1 in human EA.hy 926 cells assessed as reduction in HOS-induced ATP release preincubated for 10 mins followed by HOS solution addition and measured after 30 mins by bioluminescence analysis; type: cell-based; settings: time 40.0 min
# Sequence of Pannexin-1 (Mus musculus) (Q9JIP4 whole entry): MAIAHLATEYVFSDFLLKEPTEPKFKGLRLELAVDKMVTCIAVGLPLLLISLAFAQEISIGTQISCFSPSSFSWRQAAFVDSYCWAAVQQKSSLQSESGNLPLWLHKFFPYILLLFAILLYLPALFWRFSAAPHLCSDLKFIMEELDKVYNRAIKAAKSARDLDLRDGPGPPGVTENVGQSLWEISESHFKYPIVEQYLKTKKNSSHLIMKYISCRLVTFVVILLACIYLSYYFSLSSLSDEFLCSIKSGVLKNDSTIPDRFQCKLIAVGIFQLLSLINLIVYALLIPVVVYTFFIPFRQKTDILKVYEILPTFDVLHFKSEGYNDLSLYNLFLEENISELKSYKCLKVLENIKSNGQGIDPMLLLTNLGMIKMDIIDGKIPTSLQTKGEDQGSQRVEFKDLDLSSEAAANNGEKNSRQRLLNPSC
# Sequence of Pannexin-1 (Rattus norvegicus) (P60570 whole entry): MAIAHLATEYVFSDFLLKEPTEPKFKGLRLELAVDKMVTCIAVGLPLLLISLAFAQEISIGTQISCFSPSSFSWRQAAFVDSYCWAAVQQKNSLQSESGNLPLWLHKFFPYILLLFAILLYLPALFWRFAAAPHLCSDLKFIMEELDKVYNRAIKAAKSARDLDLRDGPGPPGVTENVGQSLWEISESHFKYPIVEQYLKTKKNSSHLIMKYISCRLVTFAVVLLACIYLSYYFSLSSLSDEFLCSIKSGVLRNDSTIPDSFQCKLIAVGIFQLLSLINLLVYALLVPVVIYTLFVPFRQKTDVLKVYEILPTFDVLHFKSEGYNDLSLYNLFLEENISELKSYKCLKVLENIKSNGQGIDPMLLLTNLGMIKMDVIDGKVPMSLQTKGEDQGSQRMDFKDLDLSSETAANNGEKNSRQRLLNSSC
# Sequence of Pannexin-1 (Homo sapiens) (Q96RD7 whole entry): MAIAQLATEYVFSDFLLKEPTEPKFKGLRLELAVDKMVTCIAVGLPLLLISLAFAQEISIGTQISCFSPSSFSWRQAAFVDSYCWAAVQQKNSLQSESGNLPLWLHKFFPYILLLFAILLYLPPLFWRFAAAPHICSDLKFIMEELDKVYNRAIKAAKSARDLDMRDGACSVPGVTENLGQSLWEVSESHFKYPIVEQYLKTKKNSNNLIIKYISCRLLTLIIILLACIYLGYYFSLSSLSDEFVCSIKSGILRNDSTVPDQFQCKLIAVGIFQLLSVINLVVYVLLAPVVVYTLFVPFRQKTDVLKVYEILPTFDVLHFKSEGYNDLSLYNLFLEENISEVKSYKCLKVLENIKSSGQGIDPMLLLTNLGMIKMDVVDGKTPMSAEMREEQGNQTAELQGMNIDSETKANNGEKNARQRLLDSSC
smiles,measurement,setting,value
CC(=O)N[C@@H](CO)C(=O)N[C@@H](Cc1c[nH]c2ccccc12)C(=O)N[C@@H](CCCNC(=N)N)C(=O)N[C@@H](CCC(N)=O)C(=O)N[C@@H](C)C(=O)N[C@H]1CCc2cn(nn2)CCCC[C@@H](C(=O)N[C@@H](Cc2ccc(O)cc2)C(N)=O)NC(=O)[C@H](CC(=O)O)NC(=O)[C@H](C(C)C)NC(=O)[C@H](Cc2ccccc2)NC1=O (Ac-SWRQA[Hpra]FVD[Lys(N3)]Y-NH2; triazole 6-10),inhibition,[1],Active
same,Activity,[2],Non-Toxic
CC(=O)N[C@H]1CCc2cn(nn2)CCCC[C@@H](C(=O)N[C@@H](C)C(=O)N[C@@H](Cc2ccccc2)C(=O)N[C@H](C(=O)N[C@@H](CC(=O)O)C(=O)N[C@@H](CO)C(=O)N[C@@H](Cc2ccc(O)cc2)C(N)=O)C(C)C)NC(=O)[C@H](CCC(N)=O)NC(=O)[C@H](CCCNC(=N)N)NC(=O)[C@H](Cc2c[nH]c3ccccc23)NC1=O (Ac-[Hpra]WRQ[Lys(N3)]AFVDSY-NH2; triazole 1-5),inhibition,[1],Active
same,Activity,[2],Non-Toxic
CCCN(CCC)S(=O)(=O)c1ccc(C(=O)O)cc1 [PROBENECID],inhibition,[3],inactive
same,inhibition,[4],Active
same,Activity,[5],Non-Toxic
same,inhibition,[6],Active
CC(=O)N[C@H]1Cc2cn(nn2)CCCC[C@@H](C(=O)N[C@@H](C)C(=O)N[C@@H](Cc2ccccc2)C(=O)N[C@H](C(=O)N[C@@H](CC(=O)O)C(=O)N[C@@H](CO)C(=O)N[C@@H](Cc2ccc(O)cc2)C(N)=O)C(C)C)NC(=O)[C@H](CCC(N)=O)NC(=O)[C@H](CCCNC(=N)N)NC(=O)[C@H](Cc2c[nH]c3ccccc23)NC1=O,inhibition,[7],inactive
same,Activity,[8],Non-Toxic
same,inhibition,[9],inactive
same,inhibition,[10],Active
same,inhibition,[11],Active
same,Activity,[12],Non-Toxic
same,inhibition,[13],Dose-Dependent Effect
CC(=O)N[C@H]1Cc2cn(nn2)CCC[C@@H](C(=O)N[C@@H](C)C(=O)N[C@@H](Cc2ccccc2)C(=O)N[C@H](C(=O)N[C@@H](CC(=O)O)C(=O)N[C@@H](CO)C(=O)N[C@@H](Cc2ccc(O)cc2)C(N)=O)C(C)C)NC(=O)[C@H](CCC(N)=O)NC(=O)[C@H](CCCNC(=N)N)NC(=O)[C@H](Cc2c[nH]c3ccccc23)NC1=O (Ac-[Pra]WRQ[Orn(N3)]AFVDSY-NH2; triazole 1-5),inhibition,[1],inactive
CC(=O)N[C@@H](CO)C(=O)N[C@@H](Cc1c[nH]c2ccccc12)C(=O)N[C@@H](CCCNC(=N)N)C(=O)N[C@@H](CCC(N)=O)C(=O)N[C@@H](C)C(=O)N[C@@H](C)C(=O)N[C@@H](Cc1ccccc1)C(=O)N[C@H]1Cc2cn(nn2)CCC[C@@H](C(N)=O)NC(=O)[C@H](Cc2ccc(O)cc2)NC(=O)[C@H](CO)NC(=O)[C@H](CC(=O)O)NC1=O (Ac-SWRQAAF[Pra]DSY[Orn(N3)]-NH2; triazole 8-12),inhibition,[1],inactive
CC(=O)N[C@@H](CO)C(=O)N[C@@H](Cc1c[nH]c2ccccc12)C(=O)N[C@@H](CCCNC(=N)N)C(=O)N[C@@H](CCC(N)=O)C(=O)N[C@@H](C)C(=O)N[C@H]1Cc2cn(nn2)CCCC[C@@H](C(=O)N[C@@H](Cc2ccc(O)cc2)C(N)=O)NC(=O)[C@H](CC(=O)O)NC(=O)[C@H](C(C)C)NC(=O)[C@H](Cc2ccccc2)NC1=O,inhibition,[7],inactive
same,Activity,[8],Non-Toxic
same,inhibition,[9],inactive
same,inhibition,[14],inactive
same,inhibition,[10],Active
same,inhibition,[11],Active
same,Activity,[12],Non-Toxic
same,inhibition,[13],Dose-Dependent Effect
same,Stability,[15],Stable
CC(C)[C@H](NC(=O)[C@H](Cc1ccccc1)NC(=O)[C@H](C)NC(=O)[C@H](C)NC(=O)[C@H](CCC(N)=O)NC(=O)[C@H](CCCNC(=N)N)NC(=O)[C@H](Cc1c[nH]c2ccccc12)NC(=O)CCCCCNC(=O)[C@@H](N)CCCCN)C(=O)N[C@@H](CC(=O)O)C(=O)N[C@@H](CO)C(=O)N[C@@H](Cc1ccc(O)cc1)C(=O)O (H-K[Ahx]WRQAAFVDSY-OH),inhibition,[16],Active
CC(=O)N[C@@H](CO)C(=O)N[C@@H](Cc1c[nH]c2ccccc12)C(=O)N[C@@H](CCCNC(=N)N)C(=O)N[C@@H](CCC(N)=O)C(=O)N[C@@H](C)C(=O)N[C@H]1Cc2cn(nn2)CCC[C@@H](C(=O)N[C@@H](Cc2ccc(O)cc2)C(N)=O)NC(=O)[C@H](CC(=O)O)NC(=O)[C@H](C(C)C)NC(=O)[C@H](Cc2ccccc2)NC1=O (Ac-SWRQA[Pra]FVD[Orn(N3)]Y-NH2; triazole 6-10),inhibition,[1],inactive
CC(=O)N[C@@H](CO)C(=O)N[C@@H](Cc1c[nH]c2ccccc12)C(=O)N[C@@H](CCCNC(=N)N)C(=O)N[C@@H](CCC(N)=O)C(=O)N[C@@H](C)C(=O)N[C@@H]1Cc2cn(nn2)CCCC[C@@H](C(=O)N[C@@H](Cc2ccc(O)cc2)C(N)=O)NC(=O)[C@H](CC(=O)O)NC(=O)[C@H](C(C)C)NC(=O)[C@H](Cc2ccccc2)NC1=O,inhibition,[1],inactive
same,Activity,[2],Non-Toxic
CC(=O)N[C@H]1CCCCn2cc(nn2)C[C@@H](C(=O)N[C@@H](C)C(=O)N[C@@H](Cc2ccccc2)C(=O)N[C@H](C(=O)N[C@@H](CC(=O)O)C(=O)N[C@@H](CO)C(=O)N[C@@H](Cc2ccc(O)cc2)C(N)=O)C(C)C)NC(=O)[C@H](CCC(N)=O)NC(=O)[C@H](CCCNC(=N)N)NC(=O)[C@H](Cc2c[nH]c3ccccc23)NC1=O (Ac-[Lys(N3)]WRQ[Pra]AFVDSY-NH2; triazole 1-5),inhibition,[1],Active
same,Activity,[2],Non-Toxic
CC(=O)N[C@H]1Cc2cn(nn2)CCCC[C@H](C(=O)N[C@@H](C)C(=O)N[C@@H](Cc2ccccc2)C(=O)N[C@H](C(=O)N[C@@H](CC(=O)O)C(=O)N[C@@H](CO)C(=O)N[C@@H](Cc2ccc(O)cc2)C(N)=O)C(C)C)NC(=O)[C@H](CCC(N)=O)NC(=O)[C@H](CCCNC(=N)N)NC(=O)[C@H](Cc2c[nH]c3ccccc23)NC1=O,inhibition,[1],inactive
same,Activity,[2],Non-Toxic
CC(=O)N[C@@H](CO)C(=O)N[C@@H](Cc1c[nH]c2ccccc12)C(=O)N[C@@H](CCCNC(=N)N)C(=O)N[C@@H](CCC(N)=O)C(=O)N[C@@H](C)C(=O)N[C@@H](C)C(=O)N[C@H]1Cc2cn(nn2)CCCC[C@@H](C(=O)O)NC(=O)[C@H](CO)NC(=O)[C@H](CC(=O)O)NC(=O)[C@H](C(C)C)NC1=O (Ac-SWRQAA[Pra]VDS[Lys(N3)]-OH; triazole 7-11),inhibition,[1],inactive
CC(=O)N[C@@H](CO)C(=O)N[C@@H](Cc1c[nH]c2ccccc12)C(=O)N[C@@H](CCCNC(=N)N)C(=O)N[C@@H](CCC(N)=O)C(=O)N[C@@H](C)C(=O)N[C@H]1CCCCn2cc(nn2)C[C@@H](C(=O)N[C@@H](Cc2ccc(O)cc2)C(N)=O)NC(=O)[C@H](CC(=O)O)NC(=O)[C@H](C(C)C)NC(=O)[C@H](Cc2ccccc2)NC1=O (Ac-SWRQA[Lys(N3)]FVD[Pra]Y-NH2; triazole 6-10),inhibition,[1],Active
same,Activity,[2],Non-Toxic
CC(=O)N[C@@H](CO)C(=O)N[C@@H](Cc1c[nH]c2ccccc12)C(=O)N[C@@H](CCCNC(=N)N)C(=O)N[C@@H](CCC(N)=O)C(=O)N[C@@H](C)C(=O)N[C@@H](C)C(=O)N[C@@H](Cc1ccccc1)C(=O)N[C@H]1Cc2cn(nn2)CCCC[C@@H](C(N)=O)NC(=O)[C@H](Cc2ccc(O)cc2)NC(=O)[C@H](CO)NC(=O)[C@H](CC(=O)O)NC1=O (Ac-SWRQAAF[Pra]DSY[Lys(N3)]-NH2; triazole 8-12),inhibition,[1],inactive
